# pIC50: −log10 of the molar value.
# Biological target: T1, human complement factor D (Homo sapiens, UniProt P00746)
# T1 construct: purchased R&D Systems 1824-SE
# Test: In vitro enzyme inhibition (Z-Lys-SBzl/DTNB absorbance assay)
# Format: biochemical
# Settings: Complement Factor D (R&D Systems), substrate Z-Lys-SBzl, A405 nm; read-out: CFD IC50
# Summary of the method: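 Factor D (6.25 ng/μL before addition) preincubated 5 min RT with compound (8 points from 50 μM, 6-fold, 0.5% DMSO final) in 50 mM Tris/HCl pH 7.5, 1 M NaCl, then Z-Lys-SBzl/DTNB added (200 μM each before addition). A405 read kinetically every 30 s for 60 min; IC50 from variable-slope fit, controls with and without enzyme.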
# T1 sequence (P00746 26-253): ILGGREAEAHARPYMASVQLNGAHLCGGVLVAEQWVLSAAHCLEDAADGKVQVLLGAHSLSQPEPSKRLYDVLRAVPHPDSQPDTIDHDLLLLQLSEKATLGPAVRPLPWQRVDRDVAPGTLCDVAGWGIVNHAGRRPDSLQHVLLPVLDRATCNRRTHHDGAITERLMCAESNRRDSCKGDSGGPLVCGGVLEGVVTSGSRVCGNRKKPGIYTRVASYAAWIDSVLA
row,pIC50,SMILES
1,5.00 to 6.00,"NC(=O)c1nn(CC(=O)N2[C@@H]3CC[C@@H](C3)[C@H]2C(=O)NCc2ccc(F)c(Cl)c2)c2ccccc12 [Example 63, 1-(2-((1R,3S,4S)-3-((3-chloro-4-fluorobenzyl)carbamoyl)-2-azabicyclo[2.2.1]heptan-2-yl)-2-oxoethyl)-1H-indazole-3-carboxamide 2,2,2-trifluoroacetate]"
2,6.00 to 7.00,"NC(=O)n1cc(CC(=O)N2[C@@H]3CC[C@@H](C3)[C@H]2C(=O)NCc2cccc(Cl)c2F)c2ccccc21 [Example 99, 3-(2-((1R,3S,4S)-3-((3-chloro-2-fluorobenzyl)carbamoyl)-2-azabicyclo[2.2.1]heptan-2-yl)-2-oxoethyl)-1H-indole-1-carboxamide]"
3,5.00 to 6.00,"NC(=O)c1nn(CC(=O)N2[C@@H]3CC[C@@H](C3)[C@H]2C(=O)Nc2cccc(C3CC3)n2)c2cc(C3CC3)ccc12 [Example 5, 6-cyclopropyl-1-(2-((1R,3S,4S)-3-((6-cyclopropylpyridin-2-yl)carbamoyl)-2-azabicyclo[2.2.1]heptan-2-yl)-2-oxoethyl)-1H-indazole-3-carboxamide]"
4,5.00 to 6.00,"NC(=O)c1nn(CC(=O)N2CCOC[C@H]2C(=O)Nc2cccc(Br)n2)c2ccccc12 [Example 24, (S)-N-(6-bromopyridin-2-yl)-4-(2-(3-carbamoyl-1H-indazol-1-yl)acetyl)morpholine-3-carboxamide]"
5,6.00 to 7.00,"CC(=O)c1nn(CC(=O)N2[C@@H]3CC[C@@H](C3)[C@H]2C(=O)Nc2cccc(Cl)n2)c2ccc(Br)cc12 [Example 90, (1R,3S,4S)-2-(2-(3-acetyl-5-bromo-1H-indazol-1-yl)acetyl)-N-(6-chloropyridin-2-yl)-2-azabicyclo[2.2.1]heptane-3-carboxamide]"
6,6.00 to 7.00,"COc1ccc2c(c1)c(C(N)=O)nn2CC(=O)N1[C@H](C(=O)Nc2cccc(Cl)n2)C[C@@H]2CCC[C@@H]21 [Example 170, 1-(2-((2S,3aS,6aS)-2-((6-chloropyridin-2-yl)carbamoyl)hexahydrocyclopenta[b]pyrrol-1(2H)-yl)-2-oxoethyl)-5-methoxy-1H-indazole-3-carboxamide]"
7,5.00 to 6.00,"NC(=O)CC(NC(=O)[C@@H]1[C@H]2CC[C@H](C2)N1C(=O)Cn1nc(C(N)=O)c2ccccc21)c1cccc(Cl)c1F (stereo partly drawn) [Example 144, 1-(2-((1R,3S,4S)-3-((3-amino-1-(3-chloro-2-fluorophenyl)-3-oxopropyl)carbamoyl)-2-azabicyclo[2.2.1]heptan-2-yl)-2-oxoethyl)-1H-indazole-3-carboxamide]"
8,< 5.00,"NC(=O)c1nn(CC(=O)N2[C@H]3CC[C@H]([C@H](O)C3)[C@@H]2C(=O)NCc2cccc(Cl)c2F)c2ccccc12 [Example 153, (1S,3R,4S,5R)-2-(2-(3-carbamoyl-1H-indazol-1-yl)acetyl)-N-(3-chloro-2-fluorobenzyl)-5-hydroxy-2-azabicyclo[2.2.2]octane-3-carboxamide]"
9,6.00 to 7.00,"CCOC(=O)[C@@H]1C[C@@H](C(=O)NCc2cccc(Cl)c2F)N1C(=O)Cn1nc(C(N)=O)c2ccccc21 (relative stereo) [Example 194, trans-ethyl 1-(2-(3-carbamoyl-1H-indazol-1-yl)acetyl)-4-((3-chloro-2-fluorobenzyl)carbamoyl)azetidine-2-carboxylate]"
10,5.00 to 6.00,"N#Cc1cccc(NC(=O)[C@@H]2[C@H]3CC[C@H](C3)N2C(=O)Cn2nc(C(N)=O)c3ccccc32)n1 [Example 49, 1-(2-((1R,3S,4S)-3-((6-cyanopyridin-2-yl)carbamoyl)-2-azabicyclo[2.2.1]heptan-2-yl)-2-oxoethyl)-1H-indazole-3-carboxamide]"
11,5.00 to 6.00,"COc1cccc(NC(=O)[C@@H]2[C@H]3CC[C@H](C3)N2C(=O)Cn2nc(C(N)=O)c3ccccc32)n1 [Example 50, 1-(2-((1R,3S,4S)-3-((6-methoxypyridin-2-yl)carbamoyl)-2-azabicyclo[2.2.1]heptan-2-yl)-2-oxoethyl)-1H-indazole-3-carboxamide]"
12,6.00 to 7.00,"COc1ccc2c(c1)c(C(C)=O)nn2CC(=O)N1[C@H](C(=O)Nc2cccc(Cl)n2)C[C@@H]2CCC[C@@H]21 [Example 175, (2S,3aS,6aS)-1-(2-(3-acetyl-5-methoxy-1H-indazol-1-yl)acetyl)-N-(6-chloropyridin-2-yl)octahydrocyclopenta[b]pyrrole-2-carboxamide]"
13,5.00 to 6.00,"CNC(=O)c1nn(CC(=O)N2[C@@H]3CC[C@@H](C3)[C@H]2C(=O)Nc2cccc(Cl)n2)c2ccccc12 [Example 88, 1-(2-((1R,3S,4S)-3-((6-chloropyridin-2-yl)carbamoyl)-2-azabicyclo[2.2.1]heptan-2-yl)-2-oxoethyl)-N-methyl-1H-indazole-3-carboxamide]"
14,6.00 to 7.00,"COC(=O)Cc1ccc2c(c1)c(C(N)=O)nn2CC(=O)N1[C@@H]2CC[C@@H](C2)[C@H]1C(=O)NCc1cccc(Cl)c1F [Example 130, methyl 2-(3-carbamoyl-1-(2-((1R,3S,4S)-3-((3-chloro-2-fluorobenzyl)carbamoyl)-2-azabicyclo[2.2.1]heptan-2-yl)-2-oxoethyl)-1H-indazol-5-yl)acetate]"
15,5.00 to 6.00,"NC(=O)Cc1ccc2c(C(N)=O)nn(CC(=O)N3[C@@H]4CC[C@@H](C4)[C@H]3C(=O)NCc3cccc(Cl)c3F)c2c1 [Example 128, 6-(2-amino-2-oxoethyl)-1-(2-((1R,3S,4S)-3-((3-chloro-2-fluorobenzyl)carbamoyl)-2-azabicyclo[2.2.1]heptan-2-yl)-2-oxoethyl)-1H-indazole-3-carboxamide]"
16,5.00 to 6.00,"N#Cc1cc(Cl)c(F)c(CNC(=O)[C@@H]2[C@H]3CC[C@H](C3)N2C(=O)Cn2nc(C(N)=O)c3ccccc32)c1 [Example 113, 1-(2-((1R,3S,4S)-3-((3-chloro-5-cyano-2-fluorobenzyl)carbamoyl)-2-azabicyclo[2.2.1]heptan-2-yl)-2-oxoethyl)-1H-indazole-3-carboxamide]"
17,6.00 to 7.00,"NC(=O)c1nn(CC(=O)N2[C@@H]3CC[C@@H](C3)[C@H]2C(=O)Nc2ccc(Cl)c(Cl)n2)c2ccccc12 [Example 76, 1-(2-((1R,3S,4S)-3-((5,6-dichloropyridin-2-yl)carbamoyl)-2-azabicyclo[2.2.1]heptan-2-yl)-2-oxoethyl)-1H-indazole-3-carboxamide]"
18,5.00 to 6.00,"CC(O)c1nn(CC(=O)N2CC[C@H]2C(=O)NCc2cccc(Cl)c2F)c2ccccc12 (stereo partly drawn) [Example 193, (2S)-N-(3-chloro-2-fluorobenzyl)-1-(2-(3-(1-hydroxyethyl)-1H-indazol-1-yl)acetyl)azetidine-2-carboxamide]"
19,6.00 to 7.00,"NC(=O)c1nn(CC(=O)N2[C@@H]3CC[C@@H](C3)[C@H]2C(=O)NCc2cccc(Cl)c2Cl)c2ccccc12 [Example 70, 1-(2-((1R,3S,4S)-3-((2,3-dichlorobenzyl)carbamoyl)-2-azabicyclo[2.2.1]heptan-2-yl)-2-oxoethyl)-1H-indazole-3-carboxamide]"
20,5.00 to 6.00,"O=C(NCCO)c1nn(CC(=O)N2[C@@H]3CC[C@@H](C3)[C@H]2C(=O)Nc2cccc(Cl)n2)c2ccccc12 [Example 89, 1-(2-((1R,3S,4S)-3-((6-chloropyridin-2-yl)carbamoyl)-2-azabicyclo[2.2.1]heptan-2-yl)-2-oxoethyl)-N-(2-hydroxyethyl)-1H-indazole-3-carboxamide]"
21,5.00 to 6.00,"CC(=O)N1CCN(C(=O)Cn2nc(C(N)=O)c3ccccc32)[C@H](C(=O)Nc2cccc(Cl)n2)C1 [Example 27, (S)-1-(2-(4-acetyl-2-((6-chloropyridin-2-yl)carbamoyl)piperazin-1-yl)-2-oxoethyl)-1H-indazole-3-carboxamide]"
22,5.00 to 6.00,"CC(=O)c1nn(CC(=O)N2[C@H](C(=O)Nc3cccc(Cl)n3)C[C@@H]3CCC[C@@H]32)c2ccc(F)cc12 [Example 183, (2S,3aS,6aS)-1-(2-(3-acetyl-5-fluoro-1H-indazol-1-yl)acetyl)-N-(6-chloropyridin-2-yl)octahydrocyclopenta[b]pyrrole-2-carboxamide]"
23,5.00 to 6.00,"COC(=O)CC(NC(=O)[C@@H]1[C@H]2CC[C@H](C2)N1C(=O)Cn1nc(C(N)=O)c2ccccc21)c1cccc(Cl)c1F (stereo partly drawn) [Example 142, methyl 3-((1R,3S,4S)-2-(2-(3-carbamoyl-1H-indazol-1-yl)acetyl)-2-azabicyclo[2.2.1]heptane-3-carboxamido)-3-(3-chloro-2-fluorophenyl)propanoate]"
24,< 5.00,"NC(=O)c1nn(CC(=O)N2[C@@H]3CC[C@@H](C3)[C@H]2C(=O)Nc2ncccc2Cl)c2ccccc12 [Example 54, 1-(2-((1R,3S,4S)-3-((3-chloropyridin-2-yl)carbamoyl)-2-azabicyclo[2.2.1]heptan-2-yl)-2-oxoethyl)-1H-indazole-3-carboxamide]"
25,5.00 to 6.00,"NC(=O)c1nn(CC(=O)N2[C@H]3CC[C@H](CC3)[C@@H]2C(=O)NCc2cccc(Cl)c2F)c2ccccc12 [Example 148, (1S,3R,4S)-2-(2-(3-carbamoyl-1H-indazol-1-yl)acetyl)-N-(3-chloro-2-fluorobenzyl)-2-azabicyclo[2.2.2]octane-3-carboxamide]"
26,6.00 to 7.00,"NC(=O)n1cc(CC(=O)N2CC[C@H]2C(=O)NCc2cccc(Cl)c2F)c2ccccc21 [Example 186, (S)-3-(2-(2-((3-chloro-2-fluorobenzyl)carbamoyl)azetidin-1-yl)-2-oxoethyl)-1H-indole-1-carboxamide]"

row,SMILES,pIC50
1,"NC(=O)c1nn(CC(=O)N2[C@@H]3CC[C@@H](C3)[C@H]2C(=O)NCc2c(C(=O)O)ccc(Cl)c2F)c2ccccc12 [Example 117, 2-(((1R,3S,4S)-2-(2-(3-carbamoyl-1H-indazol-1-yl)acetyl)-2-azabicyclo[2.2.1]heptane-3-carboxamido)methyl)-4-chloro-3-fluorobenzoic acid]",5.00 to 6.00
